Test results as given in PubChem BioAssay AID226 (DTP/NCI, 2004).
Several values for one entry are separate records, joined by “and”; a condition that tells them apart may be missing. Equal values may be shown once. Toxic doses and inconclusive results are not listed. How the source made its calls: active means survival T/C of 150% or more; inactive means T/C below 125% in these data.

System: B6C3F1 mice, intracerebral ependymoblastoma, median survival T/C
Test: NCI In Vivo Anticancer Drug Screen. Data for tumor model Ependymoblastoma (intracerebral) in B6C3F1 mice
Conditions: endpoint: median survival time, higher = longer survival
Method: The antitumor activity of compounds was measured in mice bearing transplantable tumors. Survival or tumor size were measured and the results are expressed as the measurement made in the treated group (T) divided by the measurement made in the vehicle treated control group (C). The tumor model used in this assay is Ependymoblastoma (intracerebral) in B6C3F1 mice

Measured: T/C

c1cc2n(n1)CCN2
inactive: dose: 32.0 mg/kg/injection, schedule: Q01DX005 (ip), vehicle: water 93 % of control and 88 % of control | dose: 32.0 mg/kg/injection, schedule: Q#A X006 (ip), vehicle: water 100 % of control | dose: 64.0 mg/kg/injection, schedule: Q01DX001 (ip), vehicle: water 93 % of control and 94 % of control | dose: 64.0 mg/kg/injection, schedule: Q01DX001 (oral), vehicle: water 100 % of control and 106 % of control | dose: 64.0 mg/kg/injection, schedule: Q01DX005 (ip), vehicle: water 102 % of control and 104 % of control | dose: 64.0 mg/kg/injection, schedule: Q01DX005 (oral), vehicle: water 98 % of control | dose: 64.0 mg/kg/injection, schedule: Q#A X002 (ip), vehicle: water 98 % of control | dose: 64.0 mg/kg/injection, schedule: Q#A X004 (ip), vehicle: water 94 % of control | dose: 64.0 mg/kg/injection, schedule: Q#A X006 (ip), vehicle: water 102 % of control | dose: 128.0 mg/kg/injection, schedule: Q01DX001 (ip), vehicle: water 92 % of control and 93 % of control | dose: 128.0 mg/kg/injection, schedule: Q01DX001 (oral), vehicle: water 103 % of control and 108 % of control | dose: 128.0 mg/kg/injection, schedule: Q01DX005 (ip), vehicle: water 91 % of control and 113 % of control | dose: 128.0 mg/kg/injection, schedule: Q01DX005 (oral), vehicle: water 104 % of control | dose: 128.0 mg/kg/injection, schedule: Q#A X002 (ip), vehicle: water 100 % of control | dose: 128.0 mg/kg/injection, schedule: Q#A X004 (ip), vehicle: water 109 % of control | dose: 128.0 mg/kg/injection, schedule: Q#A X006 (ip), vehicle: water 102 % of control | dose: 256.0 mg/kg/injection, schedule: Q01DX001 (ip), vehicle: water 92 % of control and 100 % of control | dose: 256.0 mg/kg/injection, schedule: Q01DX001 (oral), vehicle: water 98 % of control and 100 % of control | dose: 256.0 mg/kg/injection, schedule: Q01DX005 (ip), vehicle: water 106 % of control | dose: 256.0 mg/kg/injection, schedule: Q01DX005 (oral), vehicle: water 116 % of control | dose: 256.0 mg/kg/injection, schedule: Q#A X002 (ip), vehicle: water 98 % of control | dose: 256.0 mg/kg/injection, schedule: Q#A X006 (ip), vehicle: water 115 % of control | dose: 512.0 mg/kg/injection, schedule: Q01DX001 (ip), vehicle: water 106 % of control and 122 % of control | dose: 512.0 mg/kg/injection, schedule: Q01DX001 (oral), vehicle: water 103 % of control and 121 % of control | dose: 1024.0 mg/kg/injection, schedule: Q01DX001 (ip), vehicle: water 109 % of control

O=C(N/N=C\c1cc(Br)cc(Br)c1O)N/N=C/c1cc(Br)cc(Br)c1O
inactive: dose: 32.0 mg/kg/injection, schedule: Q01DX005 (ip), vehicle: saline with Tween-80 109 % of control | dose: 64.0 mg/kg/injection, schedule: Q01DX005 (ip), vehicle: saline with Tween-80 106 % of control | dose: 128.0 mg/kg/injection, schedule: Q01DX005 (ip), vehicle: saline with Tween-80 105 % of control | dose: 256.0 mg/kg/injection, schedule: Q01DX005 (ip), vehicle: saline with Tween-80 106 % of control | dose: 512.0 mg/kg/injection, schedule: Q01DX005 (ip), vehicle: saline with Tween-80 99 % of control

COc1cc2c(cc1O)N=C[C@@H]1CCC(O)N1C2=O (mixture of isomers)
inactive: dose: 2.0 mg/kg/injection, schedule: Q01DX005 (ip), vehicle: distilled water + Tween-80 95 % of control | dose: 4.0 mg/kg/injection, schedule: Q01DX005 (ip), vehicle: distilled water + Tween-80 92 % of control | dose: 8.0 mg/kg/injection, schedule: Q01DX005 (ip), vehicle: distilled water + Tween-80 87 % of control

O=c1ccc2ccccc2o1
inactive: dose: 12.5 mg/kg/injection, schedule: Q01DX005 (ip), vehicle: Klucel (hydroxypropylcellulose) (HPC) 100 % of control | dose: 25.0 mg/kg/injection, schedule: Q01DX005 (ip), vehicle: Klucel (hydroxypropylcellulose) (HPC) 92 % of control | dose: 45.0 mg/kg/injection, schedule: Q01DX005 (ip), vehicle: saline with Tween-80 103 % of control | dose: 50.0 mg/kg/injection, schedule: Q01DX005 (ip), vehicle: Klucel (hydroxypropylcellulose) (HPC) 108 % of control | dose: 90.0 mg/kg/injection, schedule: Q01DX005 (ip), vehicle: saline with Tween-80 98 % of control | dose: 100.0 mg/kg/injection, schedule: Q01DX005 (ip), vehicle: Klucel (hydroxypropylcellulose) (HPC) 104 % of control

CCCCCCC1CC1C(=O)NCCCCCN=C(N)N (stereo unspecified)
inactive: dose: 10.0 mg/kg/injection, schedule: Q01DX005 (ip), vehicle: Klucel (hydroxypropylcellulose) (HPC) 96 % of control | dose: 20.0 mg/kg/injection, schedule: Q01DX005 (ip), vehicle: Klucel (hydroxypropylcellulose) (HPC) 102 % of control | dose: 40.0 mg/kg/injection, schedule: Q01DX005 (ip), vehicle: Klucel (hydroxypropylcellulose) (HPC) 101 % of control

C[n+]1c2ccccc2nc2c(N)cc(N)cc21
inactive: dose: 4.0 mg/kg/injection, schedule: Q01DX005 (ip), vehicle: saline 100 % of control and 101 % of control | dose: 8.0 mg/kg/injection, schedule: Q01DX005 (ip), vehicle: saline 101 % of control and 102 % of control | dose: 16.0 mg/kg/injection, schedule: Q01DX005 (ip), vehicle: saline 103 % of control and 108 % of control | dose: 32.0 mg/kg/injection, schedule: Q01DX005 (ip), vehicle: saline 103 % of control and 114 % of control
